US12643867B2, “Compositions and uses thereof” (University of Virginia Patent Foundation, priority 2017, dated 2026)
Read-outs that look alike come from different tables or passages of the source.

Molecular target: T1, recombinant DGKα (Rattus norvegicus, UniProt P51556)
T1 construct: expressed in transfected cells; host or cells: HEK293T (SILAC HEK293T for LC-MS)
Test: ADP-glo DAG phosphorylation substrate assay
Assay type: biochemical
Protocol: The ADP-Glo DAG phosphorylation substrate assay was adapted from Sato et al (Sato et al., 2013). Transfected HEK cells expressing recombinant FLAG-DGKA were harvested in DPBS and centrifuged at 1400×g for 3 min. Supernatant was removed and 1 mL Lysis Buffer (50 mM HEPES (pH 7.2), 150 mM NaCl, 5 mM MgCL2, 1 mM DTT, 1 mM phenylmethylsulfonyl […], Phosphatase Inhibitor Cocktail 2 (Sigma-Aldrich), and EDTA-Free Protease Inhibitor Mini Tablets (Pierce)) was added and cells re-suspended. Solutions were sonicated (3×1 sec pulse, 20% amplitude) and then centrifuged at 400×g for 5 min. Supernatant was separated and protein concentrations were measured using the Bio-Rad DC protein assay and diluted in Lysis Buffer as appropriate. Samples were stored at −80° C. until use.
Micelles were prepared from lipid stocks as follows: Reaction Buffer (50 mM MOPS (pH 7.4). 1 mM DTT. 100 mM NaCl. 20 mM NaF, and |μM CaCl2)) was prepared in ddH2O. […] 1,2-dioleoyl-sn-glycerol (DG) and 1.2-dioleoyl-sn-glycero-3-phospho-L-serine (DOPS) in chloroform were mixed and then dried under nitrogen. Triton Buffer was added to the dried lipids to a final concentration of 10 mM DG and 8 mM DOPS. This solution was incubated at room temperature for 5 min with gentle shaking, followed by sonication (3×1 sec pulse, 20% amplitude). The micelles were then diluted 4-fold in reaction buffer to yield the final micelle buffer. […] of lysate was aliquoted into each well of a 96 well plate, followed by micelle buffer to a final volume of 20 μL. 19 μL of this mix was added to 1 μL of DMSO or inhibitor solution and incubated at 30° C. for 30 min. After incubation, 5 μL of reaction initiator was added to each well and mixed thoroughly, followed by aliquoting 5 μL of each reaction mixture to a 96-well half area black polystyrene plate and incubated at 30° C. for 30 min. At this point the procedure for the ADP-GloTM assay (Promega) was performed. 5 μL of ‘ADP-Glo Reagent’ was added to each well, mixed thoroughly, and allowed to incubate at 25° C. for 40 min. Then 10 μL of the ‘Kinase Detection Reagent’ was added to each well, mixed thoroughly, and allowed to incubate at 25° C. for 40 min. Luminescence was measured with no filter and an integration time of 1 sec per well on a BMG Labtech CLARIOstar plate reader.
The percentage of enzyme activity remaining was determined by comparing integrated band intensities or luminescence of inhibitor—with DMSO-treated samples for gel-based chemical proteomic or ADP-glo assays, respectively. For both chemical proteomic and ADP-glo methods, nonlinear regression analysis was used to determine the IC50 values from a dose-response curve generated using GraphPad Prism. Data are shown as mean±s.e.m. Determination of significance was performed by one-way ANOVA. All statistical analyses were performed using GraphPad Prism.

[1] = DGKα-HEK293T proteome, read-out: IC50, DGKα inhibition, DAG phosphorylation substrate assay
[2] = read-out: 95% confidence intervals for IC50 values, substrate assay

T1 sequence (P51556 whole entry): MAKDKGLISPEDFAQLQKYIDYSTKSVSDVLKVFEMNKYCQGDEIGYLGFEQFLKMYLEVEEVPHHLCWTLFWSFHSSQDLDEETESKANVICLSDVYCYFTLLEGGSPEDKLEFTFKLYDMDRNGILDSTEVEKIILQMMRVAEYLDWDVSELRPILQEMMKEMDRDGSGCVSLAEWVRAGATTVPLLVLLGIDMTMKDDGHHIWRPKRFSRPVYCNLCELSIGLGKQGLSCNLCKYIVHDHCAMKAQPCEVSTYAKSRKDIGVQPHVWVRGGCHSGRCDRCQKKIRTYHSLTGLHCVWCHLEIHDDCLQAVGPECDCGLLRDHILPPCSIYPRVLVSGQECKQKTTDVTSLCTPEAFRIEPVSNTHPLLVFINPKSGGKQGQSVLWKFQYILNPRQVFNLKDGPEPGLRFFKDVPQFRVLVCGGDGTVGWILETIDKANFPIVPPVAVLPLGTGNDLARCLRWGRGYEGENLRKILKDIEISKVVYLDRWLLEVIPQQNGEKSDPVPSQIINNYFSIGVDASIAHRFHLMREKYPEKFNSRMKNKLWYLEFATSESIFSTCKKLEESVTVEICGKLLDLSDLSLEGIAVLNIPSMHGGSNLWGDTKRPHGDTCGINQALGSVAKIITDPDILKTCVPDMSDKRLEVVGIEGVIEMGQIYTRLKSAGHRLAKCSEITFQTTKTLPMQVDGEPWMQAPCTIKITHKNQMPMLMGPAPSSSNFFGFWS

Structure (SMILES) | activity against DGKα in the substrate assay (100 μM) | IC50 [1] [µM] | IC50 [2] [µM] | blockade of recombinant DGKα activity (100 μM compound) [%] | blockade of DGKα activity (100 μM, from substrate- and chemical proteomic-assays) [%]
O=C(c1ccc(F)cc1)C1CCN(CCn2c(=O)[nH]c3ccccc3c2=O)CC1 [Ketanserin] | negligible activity |  |  |  | 
Fc1ccc(C(=C2CCNCC2)c2ccc(F)cc2)cc1 [RF001, 4-(Bis(4-fluorophenyl)methylene) piperidine] |  | 223 | 120 to 414 |  | 
Cc1nc2sccn2c(=O)c1CCN1CCC(=C(c2ccc(F)cc2)c2ccc(F)cc2)CC1 [Ritanserin] |  | 25 | 20 to 30 | ~80 | ~70
